# ChEMBL document CHEMBL1156214, “Identification of GNE-477, a potent and efficacious dual PI3K/mTOR inhibitor” (Bioorg Med Chem Lett, 2010)
# Calls of active or inactive are those of the source. The calls are words filed in the database; no cut-off is given here.
# Legend:
# [1] = target: Phosphatidylinositol 4,5-bisphosphate 3-kinase catalytic subunit alpha isoform (Homo sapiens, UniProt P42336)
# Description: Inhibition of PI3Kalpha assessed as reduction in 3,4,5-inositoltriphosphate accumulation after 30 mins by fluorescence polarization assay
# [2] = Thermodynamic solubility at pH 6.5; format: physicochemical; conditions: buffer
# [3] = Antiproliferative activity against human MCF7.1 cells after 3 days by celltiter-glo luminescence assay; format: functional, cell-based; conditions: MCF7.1, 72 h
# [4] = target: Serine/threonine-protein kinase mTOR (Homo sapiens, UniProt P42345); assay: Inhibition of human recombinant mTOR assessed as reduction in GFP-4EBP1 phosphorylation after 30 mins by FRET assay
# [5] = Hepatic clearance in rat liver microsomes; format: ADME, Microsome
# [6] = Clearance in rat at 1 mg/kg, iv or 5 mg/kg, po; format: ADME, organism-based; conditions: in vivo
# [7] = Plasma protein binding in rat at 1 mg/kg, iv or 5 mg/kg, po; format: ADME, organism-based; conditions: read-out: PPB (converted)
# [8] = Clearance in nu/nu mouse at 1 mg/kg, iv or 5 mg/kg, po; format: ADME, organism-based; conditions: in vivo
# Rattus norvegicus = assay: Unbound clearance in rat at 1 mg/kg, iv or 5 mg/kg, po; format: ADME, organism-based; conditions: in vivo
# [9] = Oral bioavailability in Beagle dog at 2 mg/kg; format: ADME, organism-based, Canis lupus familiaris; conditions: in vivo
# [10] = Oral bioavailability in nu/nu mouse at 5 mg/kg; format: ADME, organism-based; conditions: in vivo
# [11] = Oral bioavailability in rat at 5 mg/kg; format: ADME, organism-based; conditions: in vivo
# Mus musculus = assay: Toxicity in nu/nu mouse assessed as body weight loss at 1 to 20 mg/kg, po QD measured after 14 days; format: organism-based; set-up: dose 1-20 mg/kg, route oral; conditions: in vivo, 336 h
# [12] = Clearance in Beagle dog at 1 mg/kg, iv or 2 mg/kg, po; format: ADME, organism-based, Canis lupus familiaris; conditions: in vivo
# PC-3 [13] = assay: Antitumor activity against human PC3 cells xenografted in nu/nu mouse assessed as tumor growth inhibition at 20 mg/kg, po QD measured after 14 days relative to control; format: functional; set-up: scale not given: the % may be the effect or the level left
# PC-3 [14] = assay: Antitumor activity against human PC3 cells xenografted in nu/nu mouse assessed as tumor growth inhibition at 5 mg/kg, po QD measured after 14 days relative to control; format: functional; set-up: scale not given: the % may be the effect or the level left
# PC-3 [15] = assay: Antitumor activity against human PC3 cells xenografted in nu/nu mouse assessed as tumor growth inhibition at 1 mg/kg, po QD measured after 14 days relative to control; format: functional; set-up: scale not given: the % may be the effect or the level left
# PC-3 [16] = assay: Antitumor activity against human PC3 cells xenografted in nu/nu mouse assessed as tumor incidence at 1 mg/kg, po QD measured after 14 days; format: functional, organism-based; set-up: dose 1 mg/kg
# PC-3 [17] = assay: Antitumor activity against human PC3 cells xenografted in nu/nu mouse assessed as tumor growth inhibition at 10 mg/kg, po QD measured after 14 days relative to control; format: functional; set-up: scale not given: the % may be the effect or the level left
# PC-3 [18] = assay: Antitumor activity against human PC3 cells xenografted in nu/nu mouse assessed as tumor incidence at 10 mg/kg, po QD measured after 14 days; format: functional, organism-based; set-up: dose 10 mg/kg
# PC-3 [19] = assay: Antiproliferative activity against human PC3 cells after 3 days by celltiter-glo luminescence assay; format: functional, cell-based; conditions: PC-3, 72 h
# Chain of Phosphatidylinositol 4,5-bisphosphate 3-kinase catalytic subunit alpha isoform (P42336 whole entry, canonical isoform): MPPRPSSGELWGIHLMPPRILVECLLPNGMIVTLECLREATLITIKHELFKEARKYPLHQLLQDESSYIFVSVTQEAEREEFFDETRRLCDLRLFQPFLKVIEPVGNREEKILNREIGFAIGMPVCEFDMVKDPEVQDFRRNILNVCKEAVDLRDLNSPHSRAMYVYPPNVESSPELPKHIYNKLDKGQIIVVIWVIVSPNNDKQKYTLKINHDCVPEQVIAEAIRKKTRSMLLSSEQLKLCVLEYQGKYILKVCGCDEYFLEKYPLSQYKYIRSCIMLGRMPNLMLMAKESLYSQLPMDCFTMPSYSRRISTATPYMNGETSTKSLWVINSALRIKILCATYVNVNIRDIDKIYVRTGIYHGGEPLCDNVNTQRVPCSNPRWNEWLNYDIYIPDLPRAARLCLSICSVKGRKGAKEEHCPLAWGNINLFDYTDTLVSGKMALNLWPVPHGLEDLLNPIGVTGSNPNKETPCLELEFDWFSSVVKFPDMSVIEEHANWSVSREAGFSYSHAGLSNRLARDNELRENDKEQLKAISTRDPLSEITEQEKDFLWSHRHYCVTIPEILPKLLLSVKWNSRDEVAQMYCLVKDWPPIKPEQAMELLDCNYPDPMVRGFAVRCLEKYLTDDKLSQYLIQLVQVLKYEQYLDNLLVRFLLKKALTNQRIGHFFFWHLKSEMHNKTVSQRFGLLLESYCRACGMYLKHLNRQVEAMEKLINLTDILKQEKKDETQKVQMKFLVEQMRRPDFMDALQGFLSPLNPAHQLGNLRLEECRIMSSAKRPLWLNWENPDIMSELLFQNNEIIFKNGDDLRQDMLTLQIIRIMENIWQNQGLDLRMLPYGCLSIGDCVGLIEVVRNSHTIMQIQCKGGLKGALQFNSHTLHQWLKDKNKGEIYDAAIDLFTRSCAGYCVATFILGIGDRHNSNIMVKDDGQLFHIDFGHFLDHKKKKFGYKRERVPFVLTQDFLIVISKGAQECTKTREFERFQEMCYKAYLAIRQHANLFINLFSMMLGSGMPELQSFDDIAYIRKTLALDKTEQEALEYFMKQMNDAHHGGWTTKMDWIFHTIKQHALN
Structure (SMILES),IC50 [1] [nM],solubility thermodynamic [2] [µg/mL],EC50 [3] [nM],Ki [4] [nM],CLhep predicted [5] [mL/min/kg],clearance [6] [mL/min/kg],fraction unbound [7],Unbound clearance (Rattus norvegicus) [mL/min/kg],other results
CN(Cc1cc2nc(-c3cnc(N)nc3)nc(N3CCOCC3)c2s1)S(C)(=O)=O,1,15,170,10,–,–,–,–,–
Nc1ncc(-c2nc(N3CCOCC3)c3sccc3n2)cn1,5,170,430,42,–,–,–,–,–
CN1CCN(C(=O)c2cccc(-c3cc4nc(-c5cnc(N)nc5)nc(N5CCOCC5)c4s3)c2)CC1,1,–,78,10,20,52,–,–,–
CS(=O)(=O)N1CCN(Cc2cc3nc(-c4cccc5[nH]ncc45)nc(N4CCOCC4)c3s2)CC1 [PICTILISIB],–,–,720,–,–,–,–,–,–
CS(=O)(=O)N1CCN(Cc2cc3nc(-c4cnc(N)nc4)nc(N4CCOCC4)c3s2)CC1,–,62,130,29,16,–,0.48,50,clearance [8]: 49 mL/min/kg; bioavailability [9]: 35%; bioavailability [10]: 81%
CS(=O)(=O)c1cccc(-c2cc3nc(-c4cnc(N)nc4)nc(N4CCOCC4)c3s2)c1,< 1,1,40,5,7,56,0.07,800,bioavailability [11]: 3%
CC(C)(N)c1cc2nc(-c3cnc(N)nc3)nc(N3CCOCC3)c2s1,7,1100,290,59,–,–,–,–,–
Cc1c(-c2cccc(C(=O)N3CCN(C)CC3)c2)sc2c(N3CCOCC3)nc(-c3cnc(N)nc3)nc12,2,–,65,4,38,15,–,–,–
CC(=O)N(C)Cc1cc2nc(-c3cnc(N)nc3)nc(N3CCOCC3)c2s1,5,770,190,50,2,50,0.53,94,–
Cc1c(CN2CCN(S(C)(=O)=O)CC2)sc2c(N3CCOCC3)nc(-c3cnc(N)nc3)nc12,–,–,143,21,15,13,0.25,52,Activity (Mus musculus): < 10%; clearance [12]: 5 mL/min/kg; Activity (PC-3 [13]): 86%; clearance [8]: 15 mL/min/kg; bioavailability [11]: 52%; bioavailability [9]: 90%; Activity (PC-3 [14]): 43%; Activity (PC-3 [15]): 33%; bioavailability [10]: 98%; Activity (PC-3 [16]): inactive; Activity (PC-3 [17]): 60%; Activity (PC-3 [18]): inactive; EC50 (PC-3 [19]): 174 nM
CC(=O)N(C)Cc1sc2c(N3CCOCC3)nc(-c3cnc(N)nc3)nc2c1C,3,–,164,30,20,21,0.49,43,–
Cc1c(-c2cccc(S(C)(=O)=O)c2)sc2c(N3CCOCC3)nc(-c3cnc(N)nc3)nc12,< 1,3,68,4,12,13,0.03,433,bioavailability [11]: 4%
